This note sets out measurements from patent publication US20260355120A1, “"GOOD" BUFFER-BASED CATIONIC LIPIDS FOR NUCLEIC ACID DELIVERY” (SANOFI VACCINES US INC., priority 2023, published 2026).

In the test the test system is hEPO. In words: Delivery of hEPO mRNA by intramuscular administration of lipid nanoparticles; serum hEPO by ELISA. To be noted: single IM 0.1 μg/An hEPO mRNA LNP, lipid formulation 1 (N/P 4), MC3 and SM-102 in formulation 2 (N/P 3); for hEPO 6 Hr Mean: 6 h post injection; for hEPO 24 Hr Mean: 24 h post injection. It counts as in vivo, female BALB/cJ mice. From the text: The lipid nanoparticles in the examples of the present invention were formulated using Process A of WO 2018/089801 (see, e.g., Example 1 and FIG. 1 of WO 2018/089801). Process A (“A”) relates to a conventional method of encapsulating mRNA by mixing mRNA with a mixture of lipids, without first pre-forming the lipids into lipid nanoparticles. In an exemplary process, an ethanolic solution of a mixture of lipids (cationic lipid, phosphatidylethanolamine, cholesterol, and polyethylene glycol-lipid) at a fixed lipid to mRNA ratio were combined with an aqueous buffered solution of target mRNA at an acidic pH under controlled conditions to yield a suspension of uniform LNPs. After ultrafiltration and diafiltration into a suitable diluent system, the resulting nanoparticle suspensions were diluted to final concentration, filtered, and stored frozen at −80 °C until use.
Lipid nanoparticle formulations of Table C were prepared by Process A. All of the lipid nanoparticle formulations comprised hEPO mRNA and the different lipids (Cationic Lipid: DMG-PEG2000: Cholesterol: DOPE/DSPC) in the mol % ratios specified in Table C.
The cationic lipids of the present invention and lipid OF-02 were evaluated with lipid nanoparticle formulation 1. MC3 and SM-102 were evaluated with lipid nanoparticle formulation 2, which is a typical formulation for those lipids.
In summary, lipid screening studies were conducted with female BALB/cJ mice 6-8 weeks of age (Jax #000651). Mice were dosed with 0.1 μg in 30 μL of LNPs by a single intramuscular (IM) injection into the gastrocnemius leg muscle. Blood samples were taken 6 and 24 hours post injection and hEPO levels were measured in the blood serum of the mice using an ELISA assay according to the manufacture's protocol (R&D systems, Cat #DEP-00). WO2022/099003 A1 also describes an in vivo assay for intramuscular administration (e.g. on page 46, paragraph [00206]).

For the molecule `CCCCCCCC/C=C\CCCCCCCCN(CCCCCCCC(=O)OC(CCCCCCCC)CCCCCCCC)CCCCSSCCCCN1CCN(CCOC(=O)CCCN(CC(O)CCCCCCCCCC)CC(O)CCCCCCCCCC)CC1` (stereo not shown) [Compound 1], the “hEPO 6 Hr Mean” value is on record as 11 ng/mL and the “hEPO 24 Hr Mean” value is given as 9.5 ng/mL.
The matching figures for `CCCCCCCCCCCOC(=O)CCCCCN(CCCCCCCC(=O)OC(CCCCCCCC)CCCCCCCC)CCCCSSCCCCN1CCN(CCOC(=O)CCCN(CC(O)CCCCCCCCCC)CC(O)CCCCCCCCCC)CC1` (stereo not shown) [Compound 2]: 35.4 ng/mL and 29.2 ng/mL.
As for `CCCCCC/C=C\COC(=O)CCCCCCCN(CCCCCCCC(=O)OC(CCCCCCCC)CCCCCCCC)CCCCSSCCCCN1CCN(CCOC(=O)CCCN(CC(O)CCCCCCCCCC)CC(O)CCCCCCCCCC)CC1` (stereo not shown) [Compound 3], the “hEPO 6 Hr Mean” value is given as 20.5 ng/mL and the “hEPO 24 Hr Mean” value turned out to be 19.3 ng/mL.
The matching figures for `CCCCC/C=C\C/C=C\CCCCCCCCN(CCCCCCCC(=O)OC(CCCCCCCC)CCCCCCCC)CCCCSSCCCCN1CCN(CCOC(=O)CCCN(CC(O)CCCCCCCCCC)CC(O)CCCCCCCCCC)CC1` (stereo not shown) [Compound 4]: 18.8 ng/mL and 12.1 ng/mL.
In the same order, the values of `CCCCCC/C=C\COC(=O)CCCCCC(O)CN(CCCCSSCCCCN1CCN(CCOC(=O)CCCN(CC(O)CCCCCCCCCC)CC(O)CCCCCCCCCC)CC1)CC(O)CCCCCC(=O)OC(CCCCCCCC)CCCCCCCC` (stereo not shown) [Compound 5] are 35 ng/mL and 18.7 ng/mL.
The matching figures for `CCCCCCCC/C=C\CCCCCCC(O)CN(CCCCSSCCCCN1CCN(CCOC(=O)CCCN(CC(O)CCCCCCCCCC)CC(O)CCCCCCCCCC)CC1)CC(O)CCCCCC(=O)OC(CCCCCCCC)CCCCCCCC` (stereo not shown) [Compound 6]: 34.7 ng/mL and 18.4 ng/mL.
For the molecule `CCCCC/C=C\C/C=C\CCCCCCC(O)CN(CCCCSSCCCCN1CCN(CCOC(=O)CCCN(CC(O)CCCCCCCCCC)CC(O)CCCCCCCCCC)CC1)CC(O)CCCCCC(=O)OC(CCCCCCCC)CCCCCCCC` (stereo not shown) [Compound 7], the “hEPO 6 Hr Mean” value came out at 31.4 ng/mL and the “hEPO 24 Hr Mean” value was 25.8 ng/mL.
`CCCCCCCCCCCOC(=O)CCCC(O)CN(CCCCSSCCCCN1CCN(CCOC(=O)CCCN(CC(O)CCCCCCCCCC)CC(O)CCCCCCCCCC)CC1)CC(O)CCCCCC(=O)OC(CCCCCCCC)CCCCCCCC` (stereo not shown) [Compound 8]: the “hEPO 6 Hr Mean” value turned out to be 41.8 ng/mL and the “hEPO 24 Hr Mean” value amounted to 33.3 ng/mL.
In the same order, the values of `CCCCCCCCCCCOC(=O)CCCCCN(CCCCCCCC(=O)OC(CCCCCCCC)CCCCCCCC)CCCC(=O)OCCN1CCN(CCCCSSCCCN(CC(O)CCCCC(=O)OCC(CC)CC)CC(O)CCCCC(=O)OCC(CC)CC)CC1` (stereo not shown) [Compound 9] are 24.3 ng/mL and 15.7 ng/mL.
The matching figures for `CCCCCCCCCCCOC(=O)CCCCCN(CCCCCCCC(=O)OC(CCCCCCCC)CCCCCCCC)CCCC(=O)OCCN1CCN(CCCCSSCCCCN(CC(O)CCCCCC(=O)OC(CCCCCCCC)CCCCCCCC)CC2CCCC(=O)O2)CC1` (stereo not shown) [Compound 10]: 19.6 ng/mL and 7.7 ng/mL.
In the same order, the values of `CCCCCCCCC(CCCCCCCC)OC(=O)CCCCCC(O)CN(CCCC(=O)OCCN1CCN(CCCCSSCCCN(CC(O)CCCCC(=O)OCC(CC)CC)CC(O)CCCCC(=O)OCC(CC)CC)CC1)CC1CCCC(=O)O1` (stereo not shown) [Compound 11] are 18.7 ng/mL and 10.1 ng/mL.
`CCCCCCCCCCCOC(=O)CCCC(O)CN(CCCC(=O)OCCN1CCN(CCCCSSCCCN(CC(O)CCCCC(=O)OCC(CC)CC)CC(O)CCCCC(=O)OCC(CC)CC)CC1)CC(O)CCCCCC(=O)OC(CCCCCCCC)CCCCCCCC` (stereo not shown) [Compound 12]: the “hEPO 6 Hr Mean” value is recorded as 37.4 ng/mL and the “hEPO 24 Hr Mean” value was found to be 21 ng/mL.
The matching figures for `CCCCCCCCCCCOC(=O)CCCCCN(CCCCCCCC(=O)OC(CCCCCCCC)CCCCCCCC)CCCC(=O)OCCN1CCN(CCCCSSCCCCN(CC(O)CCCCCC(=O)OC(CCCCCCCC)CCCCCCCC)CC(O)CCCC(=O)OCCCCCCCCCCC)CC1` (stereo not shown) [Compound 13]: 29.5 ng/mL and 13.8 ng/mL.
As for `CCCCCCCCCCCOC(=O)CCCC(O)CN(CCCCSSCCCCN1CCN(CCOC(=O)CCCN(CC(O)CCCCCC(=O)OC(CCCCCCCC)CCCCCCCC)CC(O)CCCC(=O)OCCCCCCCCCCC)CC1)CC(O)CCCCCC(=O)OC(CCCCCCCC)CCCCCCCC` (stereo not shown) [Compound 14], the “hEPO 6 Hr Mean” value is reported as 26.4 ng/mL and the “hEPO 24 Hr Mean” value turned out to be 12.8 ng/mL.
The matching figures for `CCCCCCCCCCC(O)CN(CCCC(=O)OCCN1CCN(CCCCSSCCCCN(CC(O)CCCCC(=O)OCC(CC)CC)CC(O)CCCCC(=O)OCC(CC)CC)CC1)CC(O)CCCCCCCCCC` (stereo not shown) [Compound 15]: 36 ng/mL and 22.8 ng/mL.
In the same order, the values of `CCCCCCCCCCC(O)CN(CCCC(=O)OCCN1CCN(CCCCSSCCCN(CC(O)CCCCC(=O)OCC(CC)CC)CC(O)CCCCC(=O)OCC(CC)CC)CC1)CC(O)CCCCCCCCCC` (stereo not shown) [Compound 16] are 32.4 ng/mL and 18.7 ng/mL.
In the same order, the values of `CCCCCCCCCCC(O)CN(CCCC(=O)OCCN1CCN(CCCCSSCCCCN(CC(O)CCCC(=O)OC(CC)CC)CC(O)CCCC(=O)OC(CC)CC)CC1)CC(O)CCCCCCCCCC` (stereo not shown) [Compound 17] are 19.7 ng/mL and 10.4 ng/mL.
As to `CCCCCCCCCCC(O)CN(CCCC(=O)OCCN1CCN(CCCCSSCCCN(CC(O)CCCC(=O)OC(CC)CC)CC(O)CCCC(=O)OC(CC)CC)CC1)CC(O)CCCCCCCCCC` (stereo not shown) [Compound 18], the “hEPO 6 Hr Mean” value amounted to 18.2 ng/mL and the “hEPO 24 Hr Mean” value worked out at 9.2 ng/mL.
The matching figures for `CCCCC/C=C\C/C=C\CCCCCCCCC(CCCCCCCC/C=C\C/C=C\CCCCC)OC(=O)CCCN(C)C` [MC3, reference compound]: 3.9 ng/mL and 2.9 ng/mL.
In the same order, the values of `CCCCCCCCCCCOC(=O)CCCCCN(CCO)CCCCCCCC(=O)OC(CCCCCCCC)CCCCCCCC` [SM102, SM-102, reference compound] are 12.5 ng/mL and 13.3 ng/mL.
